This is an account of results in US10030047B2 (Hoffmann-La Roche Inc., priority 2015, dated 2018).

≈ marks a conversion by molar mass, not a printed value.

The test relates to A. baumannii strain ATCC19606. In words: Minimum inhibitory concentration (MIC) determination, microbroth dilution (CLSI). The format is cell-based. The settings on record: Acinetobacter baumannii; A. baumannii ATCC19606; CAMHB; read after 20 hours; >=80% growth inhibition; read-out: ATCC19606 MIC. Summed up:
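CLSI broth microdilution in cation-adjusted Mueller Hinton broth with twofold compound dilutions and ~5×10^5 CFU/ml inoculum, incubated at 35±2 °C. MIC read after 20 h as lowest concentration inhibiting ≥80% of growth, by eye and OD 600 nm.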
Turning to `Cc1[nH]c2ccccc2c1C[C@H]1C(=O)NCc2cc(-c3ccncc3)cc(Cl)c2Sc2ncccc2CN[C@@H](CCCN)C(=O)N[C@@H](CCCCN)C(=O)N1C` [Example 181, (11S,14S,17S)-14-(4-Amino-butyl)-11-(3-amino-propyl)-25-chloro-16-methyl-17-(2-methyl-1H-indol-3-ylmethyl)-23-pyridin-4-yl-2-thia-4,10,13,16,19-pentaaza-tricyclo[19.4.0.0*3,8*]pentacosa-1(25),3(8),4,6,21,23-hexaene-12,15,18-trione], the MIC (in general, the lowest concentration found to suppress growth) is 0.25 µg/mL (≈ 0.314 µM).

In the case of `CN1C(=O)[C@H](CCCCN)NC(=O)[C@H](Cc2ccc3ccccc3c2)NCc2cccnc2Sc2c(Cl)cc(Cl)cc2CNC(=O)[C@@H]1Cc1c[nH]c2ccccc12` [Example 108, (11S,14S,17S)-14-(4-Amino-butyl)-23,25-dichloro-17-(1H-indol-3-ylmethyl)-16-methyl-11-naphthalen-2-ylmethyl-2-thia-4,10,13,16,19-pentaaza-tricyclo[19.4.0.0*3,8*]pentacosa-1(25),3,5,7,21,23-hexaene-12,15,18-trione], the MIC was determined as 16 µg/mL (≈ 19.4 µM). To `CN1C(=O)[C@H](CCCCN)NC(=O)[C@H](CCC(N)=O)NCc2cccnc2Sc2c(Cl)cc(-c3ccccn3)cc2CNC(=O)[C@@H]1Cc1c[nH]c2ccccc12` [Example 163, 3-[(11S,14S,17S)-14-(4-Amino-butyl)-25-chloro-17-(1H-indol-3-ylmethyl)-16-methyl-12,15,18-trioxo-23-pyridin-2-yl-2-thia-4,10,13,16,19-pentaaza-tricyclo[19.4.0.0*3,8*]pentacosa-1(25),3(8),4,6,21,23-hexaen-1-yl]-propionamide] belongs 4 µg/mL (≈ 5.02 µM). To `CCN1C(=O)[C@H](CCCCN)NC(=O)[C@H](CCCN)NCc2ccccc2Sc2c(Cl)cccc2CNC(=O)[C@@H]1Cc1c[nH]c2ccccc12` [Example 45, (12S,15S,18S)-15-(4-Amino-butyl)-18-(3-amino-propyl)-4-chloro-13-ethyl-12-(1H-indol-3-ylmethyl)-2-thia-10,13,16,19-tetraaza-tricyclo[19.4.0.0*3,8*]pentacosa-1(21),3,5,7,22,24-hexaene-11,14,17-trione] belongs 0.5 µg/mL (≈ 0.696 µM).

Turning to `Cc1[nH]c2ccccc2c1C[C@H]1C(=O)NCc2cc(C#N)cc(Cl)c2Sc2ncccc2CN[C@@H](CCCN)C(=O)N[C@@H](CCCCN)C(=O)N1C` [Example 233, (11S,14S,17S)-14-(4-Amino-butyl)-11-(3-amino-propyl)-25-chloro-16-methyl-17-(2-methyl-1H-indol-3-ylmethyl)-12,15,18-trioxo-2-thia-4,10,13,16,19-pentaaza-tricyclo[19.4.0.0*3,8*]pentacosa-1(25),3(8),4,6,21,23-hexaene-23-carbonitrile], the MIC was determined as 0.25 µg/mL (≈ 0.336 µM).

On to `CC(C)[C@@H]1NCc2cccnc2Sc2c(Cl)cc(Cl)cc2CNC(=O)[C@H](Cc2c[nH]c3ccccc23)N(C)C(=O)[C@H](CCCCN)NC1=O` [Example 95, (11S,14S,17S)-14-(4-Amino-butyl)-23,25-dichloro-17-(1H-indol-3-ylmethyl)-11-isopropyl-16-methyl-2-thia-4,10,13,16,19-pentaaza-tricyclo[19.4.0.0*3,8*]pentacosa-1(25),3,5,7,21,23-hexaene-12,15,18-trione], for which the MIC stood at 8 µg/mL (≈ 11 µM). To `CN1C(=O)[C@H](CCCCN)NC(=O)[C@H](CCCN)NCc2cccnc2Sc2c(Cl)cc(-c3ccnc(Cl)c3)cc2CNC(=O)[C@@H]1Cc1c[nH]c2ccccc12` [Example 164, (11S,14S,17S)-14-(4-Amino-butyl)-11-(3-amino-propyl)-25-chloro-23-(2-chloro-pyridin-4-yl)-17-(1H-indol-3-ylmethyl)-16-methyl-2-thia-4,10,13,16,19-pentaaza-tricyclo[19.4.0.0*3,8*]pentacosa-1(21),3,5,7,22,24-hexaene-12,15,18-trione] belongs 0.25 µg/mL (≈ 0.306 µM).

With `CN1C(=O)[C@H](CCCCN)NC(=O)[C@H](Cc2cncn2C)NCc2cccnc2Sc2c(Cl)cc(C(F)(F)F)cc2CNC(=O)[C@@H]1Cc1c[nH]c2ccccc12` [Example 85, (11S,14S,17S)-14-(4-Amino-butyl)-25-chloro-17-(1H-indol-3-ylmethyl)-16-methyl-11-(3-methyl-3H-imidazol-4-ylmethyl)-23-trifluoromethyl-2-thia-4,10,13,16,19-pentaaza-tricyclo[19.4.0.0*3,8*]pentacosa-1(25),3(8),4,6,21,23-hexaene-12,15,18-trione], the minimal inhibitory concentration (MIC) was 0.5 µg/mL (≈ 0.617 µM).

As for `C[C@@H]1NCc2cccnc2Sc2c(Cl)cc(Cl)cc2CNC(=O)[C@H](Cc2c[nH]c3ccccc23)N(C)C(=O)[C@H](CCCCN)NC1=O` [Example 94, (11S,14S,17S)-14-(4-Amino-butyl)-23,25-dichloro-17-(1H-indol-3-ylmethyl)-11,16-dimethyl-2-thia-4,10,13,16,19-pentaaza-tricyclo[19.4.0.0*3,8*]pentacosa-1(25),3,5,7,21,23-hexaene-12,15,18-trione], the minimum inhibitory concentration (MIC) was 1 µg/mL (≈ 1.44 µM).

As for `CC(C)C[C@@H]1NCc2cccnc2Sc2c(Cl)cc(Cl)cc2CNC(=O)[C@H](Cc2c[nH]c3ccccc23)N(C)C(=O)[C@H](CCCCN)NC1=O` [Example 101, (11S,14S,17S)-14-(4-Amino-butyl)-23,25-dichloro-17-(1H-indol-3-ylmethyl)-11-isobutyl-16-methyl-2-thia-4,10,13,16,19-pentaaza-tricyclo[19.4.0.0*3,8*]pentacosa-1(25),3,5,7,21,23-hexaene-12,15,18-trione], the MIC came to 32 µg/mL (≈ 43.3 µM). In the case of `CN1C(=O)[C@H](CCCCN)NC(=O)[C@H](CCCN)NCc2cccnc2Sc2c(Cl)cc(-c3cccnc3)cc2CNC(=O)[C@@H]1Cc1c[nH]c2ccccc12` [Example 99, (11S,14S,17S)-14-(4-Amino-butyl)-11-(3-amino-propyl)-25-chloro-17-(1H-indol-3-ylmethyl)-16-methyl-23-pyridin-3-yl-2-thia-4,10,13,16,19-pentaaza-tricyclo[19.4.0.0*3,8*]pentacosa-1(25),3,5,7,21,23-hexaene-12,15,18-trione], the MIC amounted to 4 µg/mL (≈ 5.11 µM). Under `CN1C(=O)[C@H](CCCCN)NC(=O)[C@H](CCCN)NCc2cccnc2Sc2c(Cl)ccc(-c3ccc(S(C)(=O)=O)cc3)c2CNC(=O)[C@@H]1Cc1c[nH]c2ccccc12` [Example 225, (11S,14S,17S)-14-(4-Amino-butyl)-11-(3-amino-propyl)-25-chloro-17-(1H-indol-3-ylmethyl)-22-(4-methanesulfonyl-phenyl)-16-methyl-2-thia-4,10,13,16,19-pentaaza-tricyclo[19.4.0.0*3,8*]pentacosa-1(21),3,5,7,22,24-hexaene-12,15,18-trione] stands 0.12 µg/mL (≈ 0.14 µM); under `Cc1cc(-c2cc3c(cn2)Sc2ncccc2CN[C@@H](CCCN)C(=O)N[C@@H](CCCCN)C(=O)N(C)[C@@H](Cc2c[nH]c4ccccc24)C(=O)NC3)ccn1` [Example 167, (7S,10S,13S)-13-((1H-Indol-3-yl)methyl)-10-(4-aminobutyl)-7-(3-aminopropyl)-12-methyl-18-(2-methylpyridin-4-yl)-6,7,9,12,13,15,16-octahydrodipyrido[2,3-b:4′,3′-p][1,5,8,11,14]thiatetraazacycloheptadecine-8,11,14(5H)-trione], 32 µg/mL (≈ 41.9 µM); under `CN1C(=O)[C@H](CCCCN)NC(=O)[C@H](CCCN)NCc2cccnc2Sc2cccc(C(F)(F)F)c2CNC(=O)[C@@H]1Cc1c[nH]c2ccccc12` [Example 53, (11S,14S,17S)-14-(4-Amino-butyl)-11-(3-amino-propyl)-17-(1H-indol-3-ylmethyl)-16-methyl-22-trifluoromethyl-2-thia-4,10,13,16,19-pentaaza-tricyclo[19.4.0.0*3,8*]pentacosa-1(25),3,5,7,21,23-hexaene-12,15,18-trione], 1 µg/mL (≈ 1.35 µM). To `CN1C(=O)[C@H](CCCCN)NC(=O)[C@H](Cc2cccnc2)NCc2cccnc2Sc2c(Cl)cc(C(F)(F)F)cc2CNC(=O)[C@@H]1Cc1c[nH]c2ccccc12` [Example 86, (11S,14S,17S)-14-(4-Amino-butyl)-25-chloro-17-(1H-indol-3-ylmethyl)-16-methyl-11-pyridin-3-ylmethyl-23-trifluoromethyl-2-thia-4,10,13,16,19-pentaaza-tricyclo[19.4.0.0*3,8*]pentacosa-1(25),3(8),4,6,21,23-hexaene-12,15,18-trione] belongs 16 µg/mL (≈ 19.8 µM); to `CNC(=O)CC[C@@H]1NCc2cccnc2Sc2c(Cl)cc(Cl)cc2CNC(=O)[C@H](Cc2c[nH]c3ccccc23)N(C)C(=O)[C@H](CCCCN)NC1=O` [Example 210, 3-[(11S,14S,17S)-14-(4-Amino-butyl)-23,25-dichloro-17-(1H-indol-3-ylmethyl)-16-methyl-12,15,18-trioxo-2-thia-4,10,13,16,19-pentaaza-tricyclo[19.4.0.0*3,8*]pentacosa-1(25),3(8),4,6,21,23-hexaen-11-yl]-N-methyl-propionamide], 16 µg/mL (≈ 20.8 µM). In the case of `Cc1noc(C)c1-c1cc(Cl)c2c(c1)CNC(=O)[C@H](Cc1c[nH]c3ccccc13)N(C)C(=O)[C@H](CCCCN)NC(=O)[C@H](CCCN)NCc1cccnc1S2` [Example 186, (11S,14S,17S)-14-(4-Amino-butyl)-11-(3-amino-propyl)-25-chloro-23-(3,5-dimethyl-isoxazol-4-yl)-17-(1H-indol-3-ylmethyl)-16-methyl-2-thia-4,10,13,16,19-pentaaza-tricyclo[19.4.0.0*3,8*]pentacosa-1(25),3(8),4,6,21,23-hexaene-12,15,18-trione], the minimal inhibitory concentration (MIC) was 0.5 µg/mL (≈ 0.625 µM). Under `CN1C(=O)[C@H](CCCCN)NC(=O)[C@H](CCCN)NCc2cccnc2Sc2c(Cl)ccc(-c3ccc(N)nc3)c2CNC(=O)[C@@H]1Cc1c[nH]c2ccccc12` [Example 228, (11S,14S,17S)-14-(4-Amino-butyl)-11-(3-amino-propyl)-22-(6-amino-pyridin-3-yl)-25-chloro-17-(1H-indol-3-ylmethyl)-16-methyl-2-thia-4,10,13,16,19-pentaaza-tricyclo[19.4.0.0*3,8*]pentacosa-1(21),3,5,7,22,24-hexaene-12,15,18-trione] stands 0.12 µg/mL (≈ 0.15 µM).
